Reference: US5776720A, “Assay reagent” (priority 1995, dated 1998)
Where a name gives a salt, the structure may show the parent alone. Blank lines part the entries; values can stand above or below the compound they belong to.

Assays:
enzyme = assay: modulator effect on sensitivity of substituted rhodamine 110 substrates; assay type: cell-based; conditions: 1 mM
From the text: Modulators are components used to […] the sensitivity of the enzyme for the leaving group. The modulators speed up or slow down the activity of an enzyme by changing the active site. […] Preferred modulators for particular enzymes are included in Table 1.

monocytes = assay: Normal leukocyte enzyme activity (Table 3A), monocytes; assay type: cell-based, human; set-up: unit not given here; conditions: normal donors
From the text: (§1) The measured fluorescence intensity can be converted from mean channel fluorescence (in peak or integrated mode) to MESF (molecules of equivalent soluble fluorochrome, Flow Cytometry Standards Corp. , San Juan, Puerto Rico) or International Units of hydrolysis per cell. A normal range of enzyme activity is established by assaying males and females in sufficient quantity to characterize the population levels statistically.
(§2) A normal in house adult donor pool was drawn, recording sex and determining that no known disease state was present at the time of sample draw. Criteria for rejecting samples included patients under medication, patients with infection or inflammation of any type, colds and flu as well as any known medical illness such as cancer, heart ailment and high blood pressure. A donor list of 75 patients has been developed and a mean and 2 sd range established. A subgroup of "super normals" was developed from this list by examining the 75 patients to determine which group falls closest to the mean for all enzymes in all cell types tested. These patients were used as the "wellness index" or best group of "normalcy" patients. If a study required the use of children or newborns then this same format was used to develop a data base for these age groups.

lymphocytes = assay: Normal leukocyte enzyme activity (Table 3A), lymphocytes; assay type: cell-based, human; set-up: unit not given here; conditions: normal donors
From the text: as §1, §2

amino peptidase = assay: immune competence, amino peptidase activity in Ficoll prepared lymphocytes (FIG. 4); assay type: cell-based; conditions: acute lympholytic Ficoll prepared lymphocytes, FIG. 4B
From the text: The cell's ability to fight off an invader lies within its genetics and therefore cell type. The "readiness" however of any genetically capable group of cells to defend is different. A measure of this "readiness" is manifest in the available proteolytic enzymes contained within vacuoles or on the surface of the cell. The assay compound hydrolysis rate increases with increased mass of enzymes giving a picture of immune competence both in number of cells and activity level. […] Images were generated using Universal Imaging.

granulocytes = assay: Normal leukocyte enzyme activity (Table 3A), granulocytes; assay type: cell-based, human; set-up: unit not given here; conditions: normal donors
From the text: as §1, §2

aminopeptidase = assay: effect of calcium chloride on aminopeptidase reaction with (H-L-Asp)2 rhodamine 110; assay type: biochemical; conditions: approximately 10 mM
From the text: The chemical nature of the buffer is important to the reactivity of the assay compound with the cellular enzymes. […] In addition, the assay compound hydrolysis by the enzyme occurs at an increased rate of reaction.

native free fluorescence = assay type: physicochemical
From the text: Assays for peptidases using assay compounds generate fluorescence generally in the range of 10^-5 to 10^-6 Molar free rhodamine 110. Therefore, it is preferred that the free rhodamine 110 and blocked peptide impurities in the assay reagent should be removed to a concentration of less than the fluorescence generated by about 1×10^-6 M and more preferably less than the fluorescence generated by about 10^-7 Molar free indicator group. This amounts to a 100,000 photon count using rhodamine 110 as a standard at 10^-7 -10^-8 M, preferably 5×10^-8 M in a 1 cm path length cuvette when measured over 10 min. on a photon counting spectrofluorometer manufactured by the SLM Company of Chicago, Ill. This corresponds to a use level on the flow cytometer where no cellular false positive can be detected for a 10 minute period at the highest sensitivity setting. […] The presence of impurities causes a decrease in the storage stability of the compound, resulting in an increased autohydrolysis which leads to increased background fluorescence. A compound should be free of impurities such that when the compound (or reagent containing the compound) is stored at 4° C. for 30 days, preferably 90 days, more preferably 180 days, most preferably one year, the background fluorescence increases less than 10% , preferably less than 5% , most preferably less than 1% over these time periods, respectively. […]

autohydrolysis rate = assay type: physicochemical; conditions: 37° C., 1 cm path length
Description: A reaction run using the same data collection window without the enzyme source will determine auto-hydrolysis of the substrate and therefore the potential for negative cells to absorb the dye non-specifically resulting in false positive.
(§3) The acetate and tartrate salts thus prepared have the following characteristics, respectively: native free fluorescence, 63,000 and 61,000 photons; autohydrolysis rate when measured at 37° C. using a 1 cm path length, -5.56 and -3.8 change in photons per second; and enzymatic reaction rate of cathepsin B at 37° C., +128 and +138 change in photons per second.

cathepsin B = assay: enzymatic reaction rate of cathepsin B; assay type: biochemical; conditions: 37° C.
Description: as §3

dipeptide reagent = assay: effect of added sodium chloride on dipeptide reagent; assay type: cell-based; conditions: addition of 7 mM, pH range 6.5 to 8.7
From the text: Inhibitors and poisons (or toxins) are components that can be added to reduce the activity of non-targeted enzymes that provide competing reactions for the leaving group. Inhibitors are usually very selective for a particular enzyme. For example, EDTA only works with enzymes requiring Ca^+2, Mg^+2 and some other metals. […] Preferred inhibitors for particular enzymes are included in Table 1.

effect on sensitivity of leaving group for enzyme (enzyme; substrates with Ala-Gly and Leu-Gly): does not change the sensitivity
effect on sensitivity of rhodamine 110 substrates (enzyme; substrates with Pro, Gly, Gln-Ser, Val-Lys-Val-Lys, Ala-Ala, Ala-Ala-Ala-Ala): decreases the sensitivity
SMILES: O[C@H](CS)[C@@H](O)CS [dithioerythritol (DTE), dithioerythritol]

amino peptidase activity (amino peptidase): lost their enzymatic activity
SMILES: CC(C)C[C@H](N)C(=O)Nc1ccc2c(c1)Oc1cc(NC(=O)[C@@H](N)CC(C)C)ccc1C21OC(=O)c2ccccc21 [LEU, (Leu)2 Rho 110]
NORMAL LEUKOCYTE ENZYME ACTIVITY, MONOS Mean (monocytes): 120.66
NORMAL LEUKOCYTE ENZYME ACTIVITY, LYMPHS Mean (lymphocytes): 34.94
NORMAL LEUKOCYTE ENZYME ACTIVITY, GRANS Mean (granulocytes): 80.19

SMILES: [Ca+2].[Cl-].[Cl-] [calcium chloride]
effect on aminopeptidase reaction with (H-L-Asp)2 rhodamine 110 (aminopeptidase): inhibitory to the enzyme reaction

SMILES: CC(C)C[C@H](N)C(=O)NCC(=O)Nc1ccc2c(c1)Oc1cc(NC(=O)CNC(=O)[C@@H](N)CC(C)C)ccc1C21OC(=O)c2ccccc21 [acetate, (H-LEU-GLY)2 Rhodamine 110 Acetate]
native free fluorescence (native free fluorescence): 63,000 photons
autohydrolysis rate (autohydrolysis rate): -5.56 change in photons per second
enzymatic reaction rate of cathepsin B (cathepsin B): +128 change in photons per second

SMILES: [Cl-].[Na+] [sodium chloride]
effect on dipeptide reagent (dipeptide reagent): slightly inhibitory effect

SMILES: CC(C)C[C@H](N)C(=O)NCC(=O)Nc1ccc2c(c1)Oc1cc(NC(=O)CNC(=O)[C@@H](N)CC(C)C)ccc1C21OC(=O)c2ccccc21 [tartrate, (H-LEU-GLY)2 Rhodamine 110 Tartrate]
autohydrolysis rate (autohydrolysis rate): -3.8 change in photons per second
enzymatic reaction rate of cathepsin B (cathepsin B): +138 change in photons per second
